Reference: the NIST ThermoML archive (doi:10.1016/j.tca.2018.04.007)
± gives the expanded uncertainty stated by the source.

Experiments:
[1] = refractive index (Na D-line) (dimensionless); conditions: 101.33 kPa, Liquid, Standard Abbe refractometry
[2] = 101.33 kPa, Liquid; for mass density: Vibrating tube method; for viscosity: Capillary tube (Ostwald / Ubbelohde) method; for electrical conductivity: Direct current cell with electrodes; for thermal conductivity: transient hot wire

| Compound | refractive index ([1]; 283.15 K) | refractive index ([1]; 293.15 K) | refractive index ([1]; 303.15 K) | refractive index ([1]; 313.15 K) | refractive index ([1]; 323.15 K) | refractive index ([1]; 333.15 K) | refractive index ([1]; 343.15 K) | mass density ([2]; 283.15 K) | viscosity ([2]; 293.15 K) | electrical conductivity ([2]; 293.15 K) | mass density ([2]; 293.15 K) | thermal conductivity ([2]; 293.15 K) | viscosity ([2]; 303.15 K) | electrical conductivity ([2]; 303.15 K) | mass density ([2]; 303.15 K) | thermal conductivity ([2]; 303.15 K) | viscosity ([2]; 313.15 K) | thermal conductivity ([2]; 313.15 K) | thermal conductivity ([2]; 323.15 K) | thermal conductivity ([2]; 333.15 K) | further results |
| --- | --- | --- | --- | --- | --- | --- | --- | --- | --- | --- | --- | --- | --- | --- | --- | --- | --- | --- | --- | --- | --- |
| CCCC[P+](C)(CCCC)CCCC.[Cl-] [methyltributylphosphonium chloride] | 1.5053 ± 0.0005 | 1.5037 ± 0.0005 | 1.4999 ± 0.0005 | 1.4972 ± 0.0005 | 1.4952 ± 0.0005 | 1.4923 ± 0.0005 | 1.4888 ± 0.0005 | 964.23 ± 2 kg/m3 | 13511 ± 1300 mPa·s | 0.00254 ± 0.00026 S/m | 958.67 ± 2 kg/m3 | 0.159 ± 0.002 W/m/K | 4692 ± 360 mPa·s | 0.0059 ± 0.00059 S/m | 953.44 ± 2 kg/m3 | 0.158 ± 0.002 W/m/K | 1914 ± 120 mPa·s | 0.157 ± 0.002 W/m/K | 0.156 ± 0.002 W/m/K | 0.155 ± 0.002 W/m/K | electrical conductivity ([2]; 313.15 K): 0.0131 ± 0.0013 S/m; mass density ([2]; 313.15 K): 948.08 ± 2 kg/m3; viscosity ([2]; 323.15 K): 859 ± 42 mPa·s; electrical conductivity ([2]; 323.15 K): 0.029 ± 0.0029 S/m; mass density ([2]; 323.15 K): 942.74 ± 2 kg/m3; viscosity ([2]; 333.15 K): 416.8 ± 16 mPa·s; electrical conductivity ([2]; 333.15 K): 0.052 ± 0.0052 S/m; mass density ([2]; 333.15 K): 937.42 ± 2 kg/m3; electrical conductivity ([2]; 343.15 K): 0.0941 ± 0.0094 S/m; mass density ([2]; 343.15 K): 932.12 ± 2 kg/m3; thermal conductivity ([2]; 343.15 K): 0.154 ± 0.002 W/m/K |
| CCCCn1cc[n+](C)c1.COS(=O)(=O)[O-] [1-butyl-3-methylimidazolium methyl sulfate] | 1.4831 ± 0.0005 | 1.4804 ± 0.0005 | 1.4781 ± 0.0005 | 1.4753 ± 0.0005 | 1.4729 ± 0.0005 | 1.4704 ± 0.0005 | 1.4678 ± 0.0005 | 1218.78 ± 2 kg/m3 | 269.1 ± 8 mPa·s | 0.104 ± 0.01 S/m | 1211.96 ± 2 kg/m3 | 0.177 ± 0.002 W/m/K | 151.9 ± 3.3 mPa·s | 0.177 ± 0.018 S/m | 1205.33 ± 2 kg/m3 | 0.176 ± 0.002 W/m/K | 91.7 ± 1.4 mPa·s | 0.176 ± 0.002 W/m/K | 0.174 ± 0.002 W/m/K | 0.173 ± 0.002 W/m/K | viscosity ([2]; 283.15 K): 531.6 ± 22 mPa·s; thermal conductivity ([2]; 283.15 K): 0.179 ± 0.002 W/m/K; electrical conductivity ([2]; 313.15 K): 0.279 ± 0.028 S/m; mass density ([2]; 313.15 K): 1198.79 ± 2 kg/m3; viscosity ([2]; 323.15 K): 59.6 ± 0.7 mPa·s; electrical conductivity ([2]; 323.15 K): 0.426 ± 0.043 S/m; mass density ([2]; 323.15 K): 1192.26 ± 2 kg/m3; viscosity ([2]; 333.15 K): 40.5 ± 0.5 mPa·s; electrical conductivity ([2]; 333.15 K): 0.623 ± 0.062 S/m; mass density ([2]; 333.15 K): 1185.76 ± 2 kg/m3; viscosity ([2]; 343.15 K): 28.9 ± 0.4 mPa·s; electrical conductivity ([2]; 343.15 K): 0.884 ± 0.088 S/m; mass density ([2]; 343.15 K): 1179.31 ± 2 kg/m3; thermal conductivity ([2]; 343.15 K): 0.172 ± 0.002 W/m/K |
| COS(=O)(=O)[O-].C[n+]1ccccc1 [1-methylpyridinium methylsulfate] | 1.5164 ± 0.0005 | 1.5139 ± 0.0005 | 1.5113 ± 0.0005 | 1.5088 ± 0.0005 | 1.5063 ± 0.0005 | 1.5039 ± 0.0005 | 1.5013 ± 0.0005 | 1355 ± 2.1 kg/m3 | 113.5 ± 2 mPa·s | 0.287 ± 0.029 S/m | 1348.1 ± 2.1 kg/m3 | 0.205 ± 0.002 W/m/K | 69.2 ± 0.9 mPa·s | 0.45 ± 0.045 S/m | 1341.3 ± 2.1 kg/m3 | 0.204 ± 0.002 W/m/K | 46 ± 0.6 mPa·s | 0.204 ± 0.002 W/m/K | 0.203 ± 0.002 W/m/K | 0.202 ± 0.002 W/m/K | viscosity ([2]; 283.15 K): 199 ± 4.9 mPa·s; thermal conductivity ([2]; 283.15 K): 0.205 ± 0.002 W/m/K; electrical conductivity ([2]; 313.15 K): 0.683 ± 0.068 S/m; mass density ([2]; 313.15 K): 1334.5 ± 2.1 kg/m3; viscosity ([2]; 323.15 K): 32 ± 0.4 mPa·s; electrical conductivity ([2]; 323.15 K): 0.986 ± 0.099 S/m; mass density ([2]; 323.15 K): 1327.8 ± 2.1 kg/m3; viscosity ([2]; 333.15 K): 23 ± 0.3 mPa·s; electrical conductivity ([2]; 333.15 K): 1.36 ± 0.14 S/m; mass density ([2]; 333.15 K): 1321.1 ± 2.1 kg/m3; viscosity ([2]; 343.15 K): 17.3 ± 0.2 mPa·s; electrical conductivity ([2]; 343.15 K): 1.75 ± 0.18 S/m; mass density ([2]; 343.15 K): 1314.5 ± 2.1 kg/m3; thermal conductivity ([2]; 343.15 K): 0.201 ± 0.002 W/m/K |
| OCC(O)CO [glycerol] |  |  |  |  |  |  |  |  |  |  |  | 0.284 ± 0.002 W/m/K |  |  |  | 0.284 ± 0.002 W/m/K |  | 0.284 ± 0.002 W/m/K | 0.284 ± 0.002 W/m/K | 0.284 ± 0.002 W/m/K | thermal conductivity ([2]; 283.15 K): 0.284 ± 0.002 W/m/K |
| CCCC[P+](C)(CCCC)CCCC.O=S(=O)([N-]S(=O)(=O)C(F)(F)F)C(F)(F)F | 1.4403 ± 0.0005 | 1.4374 ± 0.0005 | 1.4344 ± 0.0005 | 1.4314 ± 0.0005 | 1.4285 ± 0.0005 | 1.4255 ± 0.0005 | 1.4228 ± 0.0005 | 1267.21 ± 2 kg/m3 | 299.3 ± 9.5 mPa·s | 0.0367 ± 0.0037 S/m | 1258.68 ± 2 kg/m3 | 0.126 ± 0.002 W/m/K | 156 ± 3.4 mPa·s | 0.0743 ± 0.0074 S/m | 1250.31 ± 2 kg/m3 | 0.125 ± 0.002 W/m/K | 87.7 ± 1.3 mPa·s | 0.122 ± 0.002 W/m/K | 0.123 ± 0.002 W/m/K | 0.122 ± 0.002 W/m/K | viscosity ([2]; 283.15 K): 616.7 ± 26 mPa·s; thermal conductivity ([2]; 283.15 K): 0.126 ± 0.002 W/m/K; electrical conductivity ([2]; 313.15 K): 0.123 ± 0.012 S/m; mass density ([2]; 313.15 K): 1242.07 ± 2 kg/m3; viscosity ([2]; 323.15 K): 54.7 ± 0.7 mPa·s; electrical conductivity ([2]; 323.15 K): 0.187 ± 0.019 S/m; mass density ([2]; 323.15 K): 1233.84 ± 2 kg/m3; viscosity ([2]; 333.15 K): 38.4 ± 0.5 mPa·s; electrical conductivity ([2]; 333.15 K): 0.279 ± 0.028 S/m; mass density ([2]; 333.15 K): 1225.64 ± 2 kg/m3; viscosity ([2]; 343.15 K): 27.5 ± 0.3 mPa·s; electrical conductivity ([2]; 343.15 K): 0.405 ± 0.041 S/m; mass density ([2]; 343.15 K): 1217.49 ± 2 kg/m3; thermal conductivity ([2]; 343.15 K): 0.121 ± 0.002 W/m/K |
| CCCC[P+](C)(CCCC)CCCC.COS(=O)(=O)[O-] [tributylmethylphosphonium methyl sulfate] | 1.4782 ± 0.0005 | 1.4755 ± 0.0005 | 1.4728 ± 0.0005 | 1.4702 ± 0.0005 | 1.4673 ± 0.0005 | 1.4647 ± 0.0005 | 1.4619 ± 0.0005 | 1066.59 ± 2 kg/m3 | 1434 ± 82 mPa·s | 0.00749 ± 0.00075 S/m | 1060.4 ± 2 kg/m3 | 0.16 ± 0.002 W/m/K | 650.6 ± 29 mPa·s | 0.0158 ± 0.0016 S/m | 1054.25 ± 2 kg/m3 | 0.159 ± 0.002 W/m/K | 339.2 ± 11 mPa·s | 0.159 ± 0.002 W/m/K | 0.158 ± 0.002 W/m/K | 0.157 ± 0.002 W/m/K | electrical conductivity ([2]; 313.15 K): 0.0278 ± 0.0028 S/m; mass density ([2]; 313.15 K): 1048.13 ± 2 kg/m3; viscosity ([2]; 323.15 K): 189.4 ± 4.6 mPa·s; electrical conductivity ([2]; 323.15 K): 0.0483 ± 0.0048 S/m; mass density ([2]; 323.15 K): 1042.02 ± 2 kg/m3; viscosity ([2]; 333.15 K): 113.9 ± 2 mPa·s; electrical conductivity ([2]; 333.15 K): 0.0882 ± 0.0088 S/m; mass density ([2]; 333.15 K): 1036.12 ± 2 kg/m3; viscosity ([2]; 343.15 K): 72.4 ± 1 mPa·s; electrical conductivity ([2]; 343.15 K): 0.139 ± 0.014 S/m; mass density ([2]; 343.15 K): 1030.18 ± 2 kg/m3; thermal conductivity ([2]; 343.15 K): 0.157 ± 0.002 W/m/K |
